Measurements taken from PubChem BioAssay (NCI).
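Values below derive from 48-hour exposures of cells grown in 96-well plates, with endpoints linearly interpolated between the two concentrations bracketing the appropriate inhibition level. The concentration for 50% growth inhibition is given as GI50. TGI: total growth inhibition.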

Assays:
Test in all cases: inhibition of tumour cell growth, NCI panel, 48 h
NCI/ADR-RES ovarian = test system: NCI/ADR-RES ovarian
U251 CNS = test system: U251 CNS
EKVX NSCLC = test system: EKVX NSCLC
SR leukemia = test system: SR leukemia
OVCAR-8 ovarian = test system: OVCAR-8 ovarian
SF-268 CNS = test system: SF-268 CNS
MALME-3M melanoma = test system: MALME-3M melanoma
NCI-H226 lung = test system: NCI-H226 lung
SK-MEL-2 melanoma = test system: SK-MEL-2 melanoma
IGROV1 ovarian = test system: IGROV1 ovarian
HCC-2998 colon = test system: HCC-2998 colon
SNB-19 CNS = test system: SNB-19 CNS
KM12 colon = test system: KM12 colon
UO-31 renal = test system: UO-31 renal
T-47D breast = test system: T-47D breast
NCI-H460 lung = test system: NCI-H460 lung
OVCAR-5 ovarian = test system: OVCAR-5 ovarian
MDA-MB-435 = test system: MDA-MB-435
CAKI-1 renal = test system: CAKI-1 renal
BT-549 breast = test system: BT-549 breast
A549 NSCLC = test system: A549 NSCLC
DU-145 prostate = test system: DU-145 prostate
NCI-H522 lung = test system: NCI-H522 lung
HOP-92 NSCLC = test system: HOP-92 NSCLC
SW-620 colon = test system: SW-620 colon
OVCAR-4 ovarian = test system: OVCAR-4 ovarian
MDA-MB-468 breast = test system: MDA-MB-468 breast
SF-295 CNS = test system: SF-295 CNS
HCT-15 colon = test system: HCT-15 colon

SMILES: OCc1[nH]nc2cc(Nc3ncc4ccc(Br)c(OC5CCC(O)CC5)c4n3)ccc12 (configuration not stated)
- GI50 (NCI/ADR-RES ovarian): 226 nM
- TGI (NCI/ADR-RES ovarian): 12200 nM
- GI50 (U251 CNS): 39.1 nM
- TGI (U251 CNS): > 100000 nM
- GI50 (EKVX NSCLC): 67.3 nM
- TGI (EKVX NSCLC): 414 nM
- TGI (SR leukemia): > 100000 nM
- GI50 (OVCAR-8 ovarian): 40.5 nM
- TGI (OVCAR-8 ovarian): > 71900 nM
- GI50 (SF-268 CNS): 33.5 nM
- TGI (SF-268 CNS): 1320 nM
- GI50 (MALME-3M melanoma): 88.2 nM
- TGI (MALME-3M melanoma): 517 nM
- GI50 (NCI-H226 lung): 16.4 nM
- TGI (NCI-H226 lung): 77 nM
- GI50 (SK-MEL-2 melanoma): 47.6 nM
- TGI (SK-MEL-2 melanoma): 213 nM
- GI50 (IGROV1 ovarian): 32.6 nM
- TGI (IGROV1 ovarian): 1190 nM
- GI50 (HCC-2998 colon): 51.2 nM
- TGI (HCC-2998 colon): 519 nM
- GI50 (SNB-19 CNS): 25.8 nM
- TGI (SNB-19 CNS): > 44800 nM
- GI50 (KM12 colon): 34.7 nM
- TGI (KM12 colon): 358 nM
- GI50 (UO-31 renal): 28.8 nM
- TGI (UO-31 renal): 278 nM
- GI50 (T-47D breast): 41.1 nM
- TGI (T-47D breast): 904 nM
- GI50 (NCI-H460 lung): 47.4 nM
- TGI (NCI-H460 lung): 4380 nM
- GI50 (OVCAR-5 ovarian): 50 nM
- TGI (OVCAR-5 ovarian): 316 nM
- GI50 (MDA-MB-435): 39.9 nM
- TGI (MDA-MB-435): 2470 nM
- GI50 (CAKI-1 renal): 21.2 nM
- TGI (CAKI-1 renal): 2400 nM
- GI50 (BT-549 breast): 27.4 nM
- TGI (BT-549 breast): 133 nM
- GI50 (A549 NSCLC): 157 nM
- TGI (A549 NSCLC): > 100000 nM
- GI50 (DU-145 prostate): 35.9 nM
- TGI (DU-145 prostate): > 100000 nM
- GI50 (NCI-H522 lung): 202 nM
- TGI (NCI-H522 lung): 744 nM
- GI50 (HOP-92 NSCLC): 92.2 nM
- TGI (HOP-92 NSCLC): > 100000 nM
- GI50 (SW-620 colon): 25.7 nM
- TGI (SW-620 colon): 1960 nM
- GI50 (OVCAR-4 ovarian): 44.2 nM
- TGI (OVCAR-4 ovarian): 1760 nM
- GI50 (MDA-MB-468 breast): 30.1 nM
- TGI (MDA-MB-468 breast): 100 nM
- GI50 (SF-295 CNS): 40.6 nM
- TGI (SF-295 CNS): 508 nM
- GI50 (HCT-15 colon): 36 nM
- TGI (HCT-15 colon): 1540 nM
